Test results: patent US20150296790A1, “SILICON-CONTAINING COMPOUND AQUEOUS SOLUTION AND ANTIBACTERIAL/ANTIVIRAL AGENT INCLUDING SAID SOLUTION” (JEX CO., LTD., priority 2012, published 2015)

Experiment: Solubility of Silicon-Containing Compound E in aqueous CD solutions (clarity and stability, visual)
Format: physicochemical
Set-up: key to Solubility of Compound E: Stability: OK: When the aqueous solutions of the CD and the Silicon-Containing Compound E did not exhibit the conditions such as presence of precipitates and deposits, the solutions were considered as stable; NG: When the aqueous solutions of the CD and the Silicon-Containing Compound E exhibited the conditions such as presence of precipitates and deposits, the solutions were not considered as stable; key to Solubility of Compound E: Clarity: When the aqueous solutions of the CD and the Silicon-Containing Compound E were clear, the solutions were rated as “OK”; When the aqueous solutions of the CD and the Silicon-Containing Compound E were not clear, the solutions were rated as “NG”
Details: purified water
Protocol: To determine “Solubility of Compound E” in the tables, the Silicon-Containing Compound E as another solute was added at respective ratios shown in the respective tables (see “Ratio of Compound E” in the tables) to the respective aqueous CD solutions after evaluation of the solubility of CD, and then the mixture was stirred on a shaker to prepare the respective aqueous solutions of the CD and the Silicon-Containing Compound E. Immediately after preparation of the aqueous solutions of the CD and the Silicon-Containing Compound E, the clarity of the aqueous solutions was visually evaluated. When the aqueous solutions of the CD and the Silicon-Containing Compound E were clear, the solutions were rated as “OK”. When the aqueous solutions of the CD and the Silicon-Containing Compound E were not clear, the solutions were rated as “NG”. “Stability” in “Solubility of Compound E” in the tables was determined by allowing the respective aqueous solutions of the CD and the Silicon-Containing Compound E after preparation to stand at ambient temperature for a predetermined period and then visually evaluating the conditions (such as presence of precipitates and deposits) of the solutions.

[1] = DEXYPEARL 1 w/w %, Compound E 0.1 w/w %
[2] = DEXYPEARL 2 w/w %, Compound E 0.1 w/w %
[3] = DEXYPEARL 3 w/w %, Compound E 0.1 w/w %
[4] = DEXYPEARL 4 w/w %, Compound E 0.1 w/w %
[5] = DEXYPEARL 5 w/w %, Compound E 0.1 w/w %
[6] = DEXYPEARL 6 w/w %, Compound E 0.1 w/w %
[7] = DEXYPEARL 7 w/w %, Compound E 0.1 w/w %
[8] = DEXYPEARL 8 w/w %, Compound E 0.1 w/w %
[9] = DEXYPEARL 9 w/w %, Compound E 0.1 w/w %
[10] = DEXYPEARL 10 w/w %, Compound E 0.1 w/w %
[11] = DEXYPEARL 20 w/w %, Compound E 0.1 w/w %
[12] = DEXYPEARL 30 w/w %, Compound E 0.1 w/w %
[13] = DEXYPEARL 40 w/w %, Compound E 0.1 w/w %
[14] = ISOELEAT 1 w/w %, Compound E 0.1 w/w %
[15] = ISOELEAT 2 w/w %, Compound E 0.1 w/w %
[16] = ISOELEAT 3 w/w %, Compound E 0.1 w/w %
[17] = ISOELEAT 4 w/w %, Compound E 0.1 w/w %
[18] = ISOELEAT 5 w/w %, Compound E 0.1 w/w %
[19] = ISOELEAT 6 w/w %, Compound E 0.1 w/w %
[20] = ISOELEAT 7 w/w %, Compound E 0.1 w/w %
[21] = ISOELEAT 8 w/w %, Compound E 0.1 w/w %
[22] = ISOELEAT 9 w/w %, Compound E 0.1 w/w %
[23] = ISOELEAT 10 w/w %, Compound E 0.1 w/w %
[24] = ISOELEAT 20 w/w %, Compound E 0.1 w/w %
[25] = ISOELEAT 30 w/w %, Compound E 0.1 w/w %
[26] = ISOELEAT 40 w/w %, Compound E 0.1 w/w %
[27] = ISOELEAT 50 w/w %, Compound E 0.1 w/w %
[28] = α-CD 1 w/w %, Compound E 0.1 w/w %
[29] = α-CD 1 w/w %, Compound E 0.2 w/w %
[30] = α-CD 1 w/w %, Compound E 0.3 w/w %
[31] = α-CD 1 w/w %, Compound E 0.4 w/w %
[32] = α-CD 1 w/w %, Compound E 0.5 w/w %
[33] = α-CD 1 w/w %, Compound E 0.6 w/w %
[34] = α-CD 1 w/w %, Compound E 0.7 w/w %
[35] = α-CD 1 w/w %, Compound E 0.8 w/w %
[36] = α-CD 1 w/w %, Compound E 0.9 w/w %
[37] = α-CD 1 w/w %, Compound E 1 w/w %
[38] = α-CD 7 w/w %, Compound E 0.1 w/w %
[39] = α-CD 7 w/w %, Compound E 0.2 w/w %
[40] = α-CD 7 w/w %, Compound E 0.3 w/w %
[41] = α-CD 7 w/w %, Compound E 0.4 w/w %
[42] = α-CD 7 w/w %, Compound E 0.5 w/w %
[43] = α-CD 7 w/w %, Compound E 0.6 w/w %
[44] = α-CD 7 w/w %, Compound E 0.7 w/w %
[45] = α-CD 7 w/w %, Compound E 0.8 w/w %
[46] = α-CD 7 w/w %, Compound E 0.9 w/w %
[47] = α-CD 7 w/w %, Compound E 1 w/w %
[48] = β-CD 1 w/w %, Compound E 0.1 w/w %

CCCCCCCCCCCCCCCCCC[N+](C)(C)CCC[Si](OCC)(OCC)OCC.[Cl-] [Compound E, Octadecyl dimethyl(3-triethoxysilylpropyl)ammonium chloride]
NG: Solubility of Compound E: Stability [11] | Solubility of Compound E: Clarity [12] | Solubility of Compound E: Stability [12] | Solubility of Compound E: Clarity [13] | Solubility of Compound E: Stability [13] | Solubility of Compound E: Clarity [23] | Solubility of Compound E: Stability [23] | Solubility of Compound E: Clarity [24] | Solubility of Compound E: Stability [24] | Solubility of Compound E: Clarity [25] | Solubility of Compound E: Stability [25] | Solubility of Compound E: Clarity [26] | Solubility of Compound E: Stability [26] | Solubility of Compound E: Clarity [27] | Solubility of Compound E: Stability [27] | Solubility of Compound E: Clarity [28] | Solubility of Compound E: Clarity [29] | Solubility of Compound E: Clarity [30] | Solubility of Compound E: Clarity [31] | Solubility of Compound E: Clarity [32] | Solubility of Compound E: Clarity [33] | Solubility of Compound E: Clarity [34] | Solubility of Compound E: Clarity [35] | Solubility of Compound E: Stability [35] | Solubility of Compound E: Clarity [36] | Solubility of Compound E: Stability [36] | Solubility of Compound E: Clarity [37] | Solubility of Compound E: Stability [37] | Solubility of Compound E: Clarity [38] | Solubility of Compound E: Clarity [39] | Solubility of Compound E: Clarity [40] | Solubility of Compound E: Clarity [41] | Solubility of Compound E: Clarity [42] | Solubility of Compound E: Clarity [43] | Solubility of Compound E: Clarity [44] | Solubility of Compound E: Clarity [45] | Solubility of Compound E: Clarity [46] | Solubility of Compound E: Clarity [47] | Solubility of Compound E: Clarity [48] | Solubility of Compound E: Clarity (β-CD 1 w/w %, Compound E 0.2 w/w %)
OK: Solubility of Compound E: Clarity [1] | Solubility of Compound E: Stability [1] | Solubility of Compound E: Clarity [2] | Solubility of Compound E: Stability [2] | Solubility of Compound E: Clarity [3] | Solubility of Compound E: Stability [3] | Solubility of Compound E: Clarity [4] | Solubility of Compound E: Stability [4] | Solubility of Compound E: Clarity [5] | Solubility of Compound E: Stability [5] | Solubility of Compound E: Clarity [6] | Solubility of Compound E: Stability [6] | Solubility of Compound E: Clarity [7] | Solubility of Compound E: Stability [7] | Solubility of Compound E: Clarity [8] | Solubility of Compound E: Stability [8] | Solubility of Compound E: Clarity [9] | Solubility of Compound E: Stability [9] | Solubility of Compound E: Clarity [10] | Solubility of Compound E: Stability [10] | Solubility of Compound E: Clarity [11] | Solubility of Compound E: Clarity [14] | Solubility of Compound E: Stability [14] | Solubility of Compound E: Clarity [15] | Solubility of Compound E: Stability [15] | Solubility of Compound E: Clarity [16] | Solubility of Compound E: Stability [16] | Solubility of Compound E: Clarity [17] | Solubility of Compound E: Stability [17] | Solubility of Compound E: Clarity [18] | Solubility of Compound E: Stability [18] | Solubility of Compound E: Clarity [19] | Solubility of Compound E: Stability [19] | Solubility of Compound E: Clarity [20] | Solubility of Compound E: Stability [20] | Solubility of Compound E: Clarity [21] | Solubility of Compound E: Stability [21] | Solubility of Compound E: Clarity [22] | Solubility of Compound E: Stability [22] | Solubility of Compound E: Stability [28] | Solubility of Compound E: Stability [29] | Solubility of Compound E: Stability [30] | Solubility of Compound E: Stability [31] | Solubility of Compound E: Stability [32] | Solubility of Compound E: Stability [33] | Solubility of Compound E: Stability [34] | Solubility of Compound E: Stability [38] | Solubility of Compound E: Stability [39] | Solubility of Compound E: Stability [40] | Solubility of Compound E: Stability [41] | Solubility of Compound E: Stability [42] | Solubility of Compound E: Stability [43] | Solubility of Compound E: Stability [44] | Solubility of Compound E: Stability [45] | Solubility of Compound E: Stability [46] | Solubility of Compound E: Stability [47] | Solubility of Compound E: Stability [48]
